Earlier results in patent US8555875B2, “Inhalation devices and related methods for administration of sedative hypnotic compounds” (Map Pharmaceuticals, Inc., priority 2008, dated 2013).

How the values were obtained:
[1] = in vivo
[2] = in vivo; remark: listed apart in the source
[3] = system: melatonin receptor MT1/MT2; conditions: metabolite MII versus ramelteon

SMILES	Duration of Action [1] [h]	Half Life [2] [h]	mean functional activity, times lower potency than ramelteon [3] [times]
CN1CCN(C(=O)OC2c3nccnc3C(=O)N2c2ccc(Cl)cn2)CC1 (single isomer, unassigned) [Eszopiclone, 6-(5-chloro-2-pyridyl)-5[(4-methyl-1-piperazinyl)carbonyloxy]-7-oxo-6,7-di hydro-5H-pyrrolo[3,4-b]pyrazine]	8	6	–
Cc1nnc2n1-c1ccc(Cl)cc1C(c1ccccc1)=NC2 [Alprazolam]	<6	9 to 14	–
CNC1=Nc2ccc(Cl)cc2C(c2ccccc2)=[N+]([O-])C1 [Chlordiazepoxide]	–	7 to 13	–
O=C1CN=C(c2ccccc2Cl)c2cc([N+](=O)[O-])ccc2N1 [Clonazepam]	24 to 28	18 to 28	–
CN1C(=O)CN=C(c2ccccc2)c2cc(Cl)ccc21 [Diazepam]	24 to 28	–	–
CCN(CC)CCN1C(=O)CN=C(c2ccccc2F)c2cc(Cl)ccc21 [Flurazepam]	24 to 28	50 to 100	–
O=C1Nc2ccc(Cl)cc2C(c2ccccc2Cl)=NC1O (centres unmarked) [Lorazepam]	12 to 18	9 to 19	–
CN1C(=O)C(O)N=C(c2ccccc2Cl)c2cc(Cl)ccc21 (centres unmarked) [Lormetazepam]	12 to 18	10	–
CC(O)C(=O)NCCC1CCc2ccc3c(c21)CCO3 (centres unmarked) [MII]	–	–	21
Cc1ncc2n1-c1ccc(Cl)cc1C(c1ccccc1F)=NC2 [Midazolam]	4	1.3 to 2.5	–
O=C1CN=C(c2ccccc2)c2cc([N+](=O)[O-])ccc2N1 [Nitrazepam]	24	28	–
CN1C(=O)C(O)N=C(c2ccccc2)c2cc(Cl)ccc21 (centres unmarked) [Temazepam]	12 to 18	–	–
Cc1nnc2n1-c1ccc(Cl)cc1C(c1ccccc1Cl)=NC2 [Triazolam]	<6	2 to 4	–
Cc1ccc(-c2nc3ccc(C)cn3c2CC(=O)N(C)C)cc1 [Zolpidem]	<4	–	–
